Assay results: US10370370B2, “Aminobenzisoxazole compounds as agonists of α7-nicotinic acetylcholine receptors” (FORUM PHARMACEUTICALS, INC., priority 2015, dated 2019)
Counter-ions that a name gives are not always drawn.

Biological target: human α7 nAChRs transiently expressed in Xenopus laevis oocytes (Homo sapiens (Human), UniProt P36544)
Assay: Oocyte Electrophysiology Screen (two-electrode voltage-clamp, HiQScreen)
Type: cell-based
Settings: test compound at 0.01 mM, response as percentage of that evoked by 0.2 mM ACh; hydrochloride
Description: Oocyte Electrophysiology Screen (% ACh @ 10 μM Oocyte)
The Oocyte Electrophysiology Screen studies were performed under contract by HiQScreen Geneva, Switzerland. All experiments were carried out at human α7 nAChRs transiently expressed in Xenopus laevis oocytes using the method of cDNA expression. Currents evoked by acetylcholine or other agonist ligands were recorded using the standard two-electrode voltage-clamp configuration (TEVC). X. laevis oocytes were prepared and injected using standard procedures. Briefly, ovaries were harvested from X. laevis females that were deeply anesthetized and pithed following the animal rights rule from the Geneva canton. A small piece of ovary was isolated for immediate preparation while the remaining part was placed at 4° C. in a sterile Barth solution containing in mM: NaCl 88, KCl 1, NaHCO3 2.4, HEPES 10, MgSO4.7H2O 0.82, Ca(NO3)2.4H2O 0.33, CaCl2.6H2O 0.41, at pH 7.4, and supplemented with 20 μg/mL of kanamycin, 100 unit/mL penicillin and 100 μg/mL streptomycin. On the second day following dissociation, oocytes were injected with 2 ng of cDNA per oocyte containing the gene encoding human α7 nicotinic acetylcholine receptor subunits using an automated injector (Hogg et al., 2008). All recordings were performed at 18° C. and cells were superfused with OR2 medium containing in mM: NaCl 82.5, KCl 2.5, HEPES 5, CaCl2.2H2O 2.5, pH 7.4. Cells were held at −80 mV. Data were filtered at 10 Hz, captured at 100 Hz and analyzed using proprietary data acquisition and analysis software running under Matlab (Mathworks Inc.).
Experimental Protocol and Analysis
After establishing a baseline transmembrane current, acetylcholine (ACh) was applied for 5 seconds at a concentration of 0.2 mM to establish a control ACh-evoked current response. Following a wash period of 90 s in OR2 medium (free of ACh), cells were then exposed for 30 s to the test compound applied at 0.01 mM. The same reference ACh test pulse was immediately given at the end of the compound exposure and again after 90 s of recovery in OR2 Medium (free of ACh or test compound). All data were determined in triplicate. The response evoked by the test compound was expressed as a percentage of that evoked by ACh: Response (% ACh)=100×(Itest/IACh) where Itest is the peak inward current measured during exposure to 0.01 mM of test compound and IACh is the peak inward current measured in the presence of ACh.
Results are provided in Table 2 (reported as % ACh @ 10 μM Oocyte).

human α7 nAChRs transiently expressed in Xenopus laevis oocytes, sequence (P36544 23-502 limits assumed): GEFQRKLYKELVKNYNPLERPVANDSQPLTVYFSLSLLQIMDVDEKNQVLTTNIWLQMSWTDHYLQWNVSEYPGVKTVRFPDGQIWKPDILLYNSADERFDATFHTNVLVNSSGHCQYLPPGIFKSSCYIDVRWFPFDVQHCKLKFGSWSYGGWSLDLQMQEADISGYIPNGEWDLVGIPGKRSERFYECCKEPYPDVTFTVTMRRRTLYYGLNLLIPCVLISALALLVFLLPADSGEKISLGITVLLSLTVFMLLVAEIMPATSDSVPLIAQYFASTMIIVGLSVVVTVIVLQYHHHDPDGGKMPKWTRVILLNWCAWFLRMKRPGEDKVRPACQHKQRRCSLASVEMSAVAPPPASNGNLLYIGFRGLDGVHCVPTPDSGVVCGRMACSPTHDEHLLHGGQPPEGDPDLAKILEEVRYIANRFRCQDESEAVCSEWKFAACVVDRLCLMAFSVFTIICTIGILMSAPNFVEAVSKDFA

Row | SMILES | % ACh @ 10 μM Oocyte [% ACh]
1 | c1ccc2c(NC3CN4CCC3CC4)noc2c1 (single isomer, unassigned; enantiomer1) [Compound 1-P1] | 483
2 | Clc1cccc2c(NC3CN4CCC3CC4)noc12 (single isomer, unassigned; enantiomer1) [Compound 2-P1, 7-chloro-N-(quinuclidin-3-yl)benzo[d]isoxazol-3-amine-enantiomer1 hydrochloride] | 418
3 | Clc1ccc2c(NC3CN4CCC3CC4)noc2c1 (single isomer, unassigned; enantiomer1) [Compound 3-P1, 6-chloro-N-(quinuclidin-3-yl)benzo[d]isoxazol-3-amine-enantiomer1 hydrochloride] | 465
4 | Clc1ccc2onc(NC3CN4CCC3CC4)c2c1 (single isomer, unassigned; enantiomer1) [Compound 4-P1, 5-chloro-N-(quinuclidin-3-yl)benzo[d]isoxazol-3-amine-enantiomer1 hydrochloride] | 326
5 | Cc1ccc2c(NC3CN4CCC3CC4)noc2c1 (single isomer, unassigned; enantiomer1) [Compound 5-P1, 6-methyl-N-(quinuclidin-3-yl)benzo[d]isoxazol-3-amine-enantiomer1 hydrochloride] | 548
6 | c1cc2c(NC3CN4CCC3CC4)noc2cc1C1CC1 (single isomer, unassigned; enantiomer1) [Compound 6-P1, 6-cyclopropyl-N-(quinuclidin-3-yl)benzo[d]isoxazol-3-amine-enantiomer1 hydrochloride] | 157
7 | COc1ccc2c(NC3CN4CCC3CC4)noc2c1 (single isomer, unassigned; enantiomer1) [Compound 7-P1, 6-methoxy-N-(quinuclidin-3-yl)benzo[d]isoxazol-3-amine-enantiomer1 hydrochloride] | 326
8 | FC(F)(F)c1ccc2c(NC3CN4CCC3CC4)noc2c1 (single isomer, unassigned; enantiomer1) [Compound 8-P1, N-(quinuclidin-3-yl)-6-(trifluoromethyl)benzo[d]isoxazol-3-amine-enantiomer1 hydrochloride] | 26
9 | c1ccc2c(NC3CN4CCC3CC4)noc2c1 (single isomer, unassigned; enantiomer2) [Compound 1-P2, N-(quinuclidin-3-yl)benzo[d]isoxazol-3-amine-enantiomer2 hydrochloride] | 206
10 | Clc1cccc2c(NC3CN4CCC3CC4)noc12 (single isomer, unassigned; enantiomer2) [Compound 2-P2, 7-chloro-N-(quinuclidin-3-yl)benzo[d]isoxazol-3-amine-enantiomer2 hydrochloride] | 363
11 | Clc1ccc2c(NC3CN4CCC3CC4)noc2c1 (single isomer, unassigned; enantiomer2) [Compound 3-P2, 6-chloro-N-(quinuclidin-3-yl)benzo[d]isoxazol-3-amine-enantiomer2 hydrochloride] | 379
12 | Clc1ccc2onc(NC3CN4CCC3CC4)c2c1 (single isomer, unassigned; enantiomer2) [Compound 4-P2, 5-chloro-N-(quinuclidin-3-yl)benzo[d]isoxazol-3-amine-enantiomer2 hydrochloride] | 17
13 | Cc1ccc2c(NC3CN4CCC3CC4)noc2c1 (single isomer, unassigned; enantiomer2) [Compound 5-P2, 6-methyl-N-(quinuclidin-3-yl)benzo[d]isoxazol-3-amine-enantiomer2 hydrochloride] | 645
14 | c1cc2c(NC3CN4CCC3CC4)noc2cc1C1CC1 (single isomer, unassigned; enantiomer2) [Compound 6-P2, 6-cyclopropyl-N-(quinuclidin-3-yl)benzo[d]isoxazol-3-amine-enantiomer2 hydrochloride] | 355
15 | COc1ccc2c(NC3CN4CCC3CC4)noc2c1 (single isomer, unassigned; enantiomer2) [Compound 7-P2, 6-methoxy-N-(quinuclidin-3-yl)benzo[d]isoxazol-3-amine-enantiomer2 hydrochloride] | 427
16 | FC(F)(F)c1ccc2c(NC3CN4CCC3CC4)noc2c1 (single isomer, unassigned; enantiomer2) [Compound 8-P2, N-(quinuclidin-3-yl)-6-(trifluoromethyl)benzo[d]isoxazol-3-amine-enantiomer2 hydrochloride] | 221

Biological target: human α7 nAChR (Homo sapiens (Human), UniProt P36544)
Assay: not given
Type: binding
Settings: above described assay provided by Cerep

human α7 nAChR, sequence (P36544 23-502 limits assumed): as above

Row | SMILES | Ki [nM]
17 | Cc1ccc(-c2ccc(OC3CN4CCC3CC4)cn2)cc1 (stereo not shown) [AQW051] | 255

Biological target: recombinantly expressed human α7-nAChR (Homo sapiens (Human), UniProt P36544)
Assay: not given
Settings: [125I] α-BTX radioligand, read-out: Ki (lit); cited from earlier work

recombinantly expressed human α7-nAChR, sequence (P36544 23-502 limits assumed): as above

Row | SMILES | Ki [nM]
18 | Cc1ccc(-c2ccc(OC3CN4CCC3CC4)cn2)cc1 (stereo not shown) [AQW051] | 28

Biological target: human 5-HT3 serotonin receptors (Homo sapiens (Human), UniProt P46098)
Assay: [3H]BRL 43694 competition binding (Cerep)
Settings: CHO cell membranes expressing human 5-HT3 receptors

human 5-HT3 serotonin receptors, sequence (P46098 24-478): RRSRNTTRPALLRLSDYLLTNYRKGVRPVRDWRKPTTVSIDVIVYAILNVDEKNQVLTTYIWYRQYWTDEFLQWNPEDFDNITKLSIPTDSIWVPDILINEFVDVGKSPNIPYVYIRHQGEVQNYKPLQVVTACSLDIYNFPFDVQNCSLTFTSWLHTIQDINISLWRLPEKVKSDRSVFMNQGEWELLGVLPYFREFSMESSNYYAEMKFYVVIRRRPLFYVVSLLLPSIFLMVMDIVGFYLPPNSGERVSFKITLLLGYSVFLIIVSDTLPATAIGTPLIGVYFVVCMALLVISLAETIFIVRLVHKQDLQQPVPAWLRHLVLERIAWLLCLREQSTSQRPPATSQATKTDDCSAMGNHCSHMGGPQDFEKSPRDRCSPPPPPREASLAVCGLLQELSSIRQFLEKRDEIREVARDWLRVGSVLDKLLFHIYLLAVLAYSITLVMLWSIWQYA

Row | SMILES | Ki [nM]
19 | Cc1c(Cl)ccc2c(N[C@H]3CN4CCC3CC4)noc12 [Compound (R)-23, (R)-6-chloro-7-methyl-N-(quinuclidin-3-yl)benzo[d]isoxazol-3-amine hydrochloride] | 190
